Measurements from patent US20240026458A1, “Method for Determining Sensitivity to an Antineoplastic Agent” (UNIVERSITÉ LIBRE DE BRUXELLES, priority 2020, published 2024).

Tests used:
[1] = tested on: H3K27me3; assay: Western blot of global H3K27me3 in cells treated with inhibitor; format: cell-based, human; details: versus DMSO
Procedure: The cells were lysed in cell lysis buffer (Cell Signaling, catalog #9803) with phosphatase inhibitor cocktail (Cell Signaling, catalog 5870) and 1 mM PMSF (Sigma, Cat #P7626) for 5 minutes on ice, sonicated 5 times 10 seconds and then centrifuged for 10 min at 14.000 rpm at 4° C. A range of 5 to 30 micrograms of cell lysate was loaded in NuPage 10% Bis-Tris gel (Invitrogen, Cat #NP0315BOX) and separated by electrophoresis. Proteins were transferred on nitrocellulose membranes (Thermo Scientific, Cat #88018). The membranes were incubated overnight with anti-phospho-CAMK2 (Rabbit, 1/133, Cell Signaling, clone D21E4, cat #12716) or anti-phospho-SCR Tyr416 (Rabbit, 1:3000, Cell Signaling, clone D49G4, Cat #6943) or anti-H3K27Me3 Lys27 (Rabbit, 1:3000, Millipore, Cat #17-622) or anti-phospho-MEK1/MEK2 Ser218, SER222, Ser226 (Rabbit, 1:1000, Invitrogen, Cat #44-454G) or anti-phospho-EGFR Y1197 (Rat, 1:500, R&D, MAB8058), anti-CAMK2 (pan) (Rabbit, 1/125, Cell Signaling, clone D11A10, cat #4436) or anti-SRC (Rabbit, 1:1000, Cell Signaling, clone32G6, Cat #2123) or anti-H3 (Rabbit, 1:6000, Abcam, Cat #ab1791) or anti-MEK1/MEK2 (Rabbit, 1:1000, Invitrogen, Cat #PA5-31917) or anti-EGFR (Rabbit, 1:1000, Cell Signaling, clone D38B1, Cat #4267), anti-YES (Rabbit, 1:1000, Cell Signaling, clone D9P3E, Cat #65890) and anti-β-actin (1:2000, Abcam, Cat #ab8227). […]

[2] = tested on: SOX2 expression; assay: SOX2 mRNA (RT-qPCR) and protein (Western blot) in FAT1 WT cells treated with EZH2 inhibitor; format: cell-based, human; details: GSK343 500 nM, 7 days, versus DMSO
Procedure: (§1) The cells were lysed in cell lysis buffer (Cell Signaling, catalog #9803) with phosphatase inhibitor cocktail (Cell Signaling, catalog 5870) and 1 mM PMSF (Sigma, Cat #P7626) for 5 minutes on ice, sonicated 5 times 10 seconds and then centrifuged for 10 min at 14.000 rpm at 4° C. A range of 5 to 30 micrograms of cell lysate was loaded in NuPage 10% Bis-Tris gel (Invitrogen, Cat #NP0315BOX) and separated by electrophoresis. Proteins were transferred on nitrocellulose membranes (Thermo Scientific, Cat #88018). […]
RNA extraction from FACS isolated cells was performed using RNeasy micro kit (QIAGEN) according to the manufacturer's recommendations. For real-time PCR, after nanodrop quantification, the first strand cDNA was synthesized using Superscript II (Invitrogen) and random hexamers (Roche) in […] final volume. Control of genomic contaminations was measured for each sample by performing the same procedure with or without reverse transcriptase. Quantitative PCR assays were performed using 1 ng of cDNA as template, SYBRGreen mix (Applied Bioscience) on Light Cycler 96 (Roche) real-time PCR system. […]

[3] = tested on: SRC/YES phosphorylation; assay: Western blot of phosphorylated SRC/YES in FAT1 KO cells treated with inhibitor; format: cell-based, human; details: KN93 10 μM, 96 h, versus DMSO
Procedure: A388 cells (human skin SCC) cells were maintained in DMEM medium supplemented with 10% FBS, 100 U/ml Pen/Strep and 2 mM L-glutamine. 293T cells were maintained in DMEM (Gibco) supplemented with 10% FBS, 2 mM Glutamine, 100 U/ml Pen/Strep solution, MEM Non-Essential Amino Acids Solution and Pyruvate. All cell lines were acquired from ATCC and cultured at 37 degrees with 20% 02 and 5% CO2.
as §1

[4] = tested on: surface CD44; assay: FACS analysis of surface CD44 in FAT1 KO cells treated with inhibitor; format: cell-based, human; details: CAMK2 inhibitor (KN93) 10 μM, versus DMSO
Procedure: CD44 expression in FAT1 WT and FAT1 KO human SCC cells was performed after trypsinization of cells and incubation with APC conjugated anti-CD44 (Clone IM7, BioLegend Cat #103011, dilution 1:50) antibody. Living tumor cells were selected by forward and side scatter, doublets discriminating and DAPI dye exclusion.
For CAMK2 inhibition present inventors used CAMK2 inhibitor KN93 (Selleckchem Cat #57423, dissolved in DMSO) at 10 μM and present inventors incubated cells during 96 h refreshing the medium once after 48 h. After 96 h the cells were collected for WB as described above or for FACS analysis. For immunostaining present inventors followed the same treatment but the cells were plated previously on coverslips covered with gelatin.

[5] = tested on: FAT1 KO human SCC cells; assay: Expression of YAP1, ZEB1, E-Cadherin and SOX2 (immunostaining) in FAT1 KO cells treated with CAMK2 or SRC inhibitors; format: cell-based
Procedure: After 96 h the cells were collected for WB as described above or for FACS analysis. For immunostaining present inventors followed the same treatment but the cells were plated previously on coverslips covered with gelatin.
After 72 h the cells were collected for WB or immunostaining as described above.

[6] = tested on: FAT1 WT and FAT1 KO human SCC cells (A388); assay: Drug sensitivity assay (cell viability by FACS), FAT1 WT versus FAT1 KO cells; format: cell-based; details: cell viability at 48 h, serial dilution of inhibitor, 5% FBS medium
Procedure: For the drug sensitivity assay, cells have been seeded at a density of 4000 cells/well in a 96 well plate. […] 48 hours after the start of treatment, cells have been harvested by trypsinization, and quantified by counting the number of living cells by FACS. Living cells were selected by forward and side scatter and by Hoechst dye exclusion. Each data point is the result of at least three independent replicates; each of the replicates is evaluated using a technical duplicate. Drug response curves and IC50 values have been calculated using the Prism8 software.

[7] = FAT1 KO cells treated with inhibitor (data not shown)

CCCc1cc(C)[nH]c(=O)c1CNC(=O)c1cc(-c2ccnc(N3CCN(C)CC3)c2)cc2c1cnn2C(C)C [GSK343]
H3K27me3 ([1]; FAT1 WT cells, GSK343 500 nM, 7 days): decreased | SOX2 mRNA expression [2]: increased | SOX2 protein expression [2]: increased

COc1ccc(S(=O)(=O)N(CCO)c2ccccc2CN(C)C/C=C/c2ccc(Cl)cc2)cc1 [KN93]
SRC/YES phosphorylation levels [3]: greatly decreased | levels of surface CD44 [4]: decreased significantly | SOX2 expression ([5]; FAT1 KO TCs treated with inhibitor (data not shown)): decrease | E-Cadherin expression [5, 7]: increase | ZEB1 [5, 7]: strong decrease | colony morphology [5, 7]: more compact epithelial colonies | nuclear YAP1 [5, 7]: strong decrease | global levels of H3K27me3 ([1]; FAT1 KO cells treated with CAMK2 inhibitor): increased | sensitivity of FAT1 KO cells as compared to FAT1 WT cells [6]: significantly more sensitive
